Data reported in US20110250629A1, “ALCOHOL PRODUCTION PROCESS” (Lanza Tech New Zealand Limited, priority 2009, published 2011).

How the values were obtained:
[1] = tested on: Clostridium autoethanogenum DSM23693; conditions: 37° C., PETC medium
Description: The ethanol tolerance of Clostridium autoethanogenum DSM23693 was tested in serum bottles (FIG. 5). Ethanol was added in various concentrations to an active growing culture at 37° C. in PETC medium (Tab. 1) with 30 psi steel mill gas as substrate (approx 48% CO, 32% N2, 2% H2, and 18% CO2). Ethanol concentrations were confirmed by HPLC analysis using an Agilent 1100 Series HPLC system equipped with a RID operated at 35° C. (Refractive Index Detector) and an Alltech IOA-2000 Organic acid column (150×6.5 mm, particle size 5 μm) kept at 60° C. Slightly acidified water was used (0.005 M H2SO4) as mobile phase with a flow rate of 0.7 ml/min. To remove proteins and other cell residues, 400 μl samples were mixed with 100 μl of a 2% (w/v) 5-Sulfosalicylic acid and centrifuged at 14,000×g for 3 min to separate precipitated residues. 10 μl of the supernatant were then injected into the HPLC for analyses.

Clostridium thermocellum = conditions: cited from earlier work
[2] = tested on: Clostridium autoethanogenum; conditions: fermentation broth

For `CCO` [ethanol, Ethanol], the “microbial biomass reached over a 24 hour period” value ([1]; 20 g/L ethanol added, 30 psi steel mill gas, start approx 0.2 g/L biomass, no-added-ethanol culture reached approx 0.85 g/L) is listed as 0.45 g/L, the “ethanol concentration at which growth was found to be inhibited” value ([1]; serum bottles) is listed as 10-20 g/l and the “ethanol concentration in which the micro-organism can still thrive” value (Clostridium thermocellum; after strain selection) is listed as “up to 8%”. The “ethanol concentration inhibitory to growth” value (Clostridium thermocellum; unselected strain) was “above 1%”, the “concentration over which growth rate is partially inhibited and productivity decreases” value [2] was 20 to 40 g/L and the “concentration over which metabolism and growth rate are substantially slowed” value [2] was 40 to 50 g/L.
